Test results as given in publication PMC7179901, “The aerobic respiratory chain of Pseudomonas aeruginosa cultured in artificial urine media: Role of NQR and terminal oxidases” (PLoS ONE, 2020).

Key:
[1] = target: T1, purified P. aeruginosa NQR (Pa-NQR) (Pseudomonas aeruginosa, UniProt Q9HZL1); experiment: ubiquinone reductase activity at […] nm; type: biochemical; settings: 50 μM ubiquinone-1, KHE buffer pH 7.5
T1 construct: gene nqrF; […]; DDM-solubilized, Ni-NTA (tag not described) and DEAE purified; six-subunit complex; with Na(+)-translocating NADH-quinone reductase subunit A; Na(+)-translocating NADH-quinone reductase subunit B; Na(+)-translocating NADH-quinone reductase subunit C; Na(+)-translocating NADH-quinone reductase subunit D; Na(+)-translocating NADH-quinone reductase subunit E

NQR = target: T2, NQR (Pseudomonas aeruginosa, UniProt Q9HZK7+Q9HZK9); experiment: HQNO titration of NADH-dependent oxygen consumption in isolated membranes; type: biochemical
T2 construct: gene nqrB; native NQR complex in LB and mAUM membranes; with six-subunit complex NqrA-F
T2 sequence (Q9HZK9 whole entry): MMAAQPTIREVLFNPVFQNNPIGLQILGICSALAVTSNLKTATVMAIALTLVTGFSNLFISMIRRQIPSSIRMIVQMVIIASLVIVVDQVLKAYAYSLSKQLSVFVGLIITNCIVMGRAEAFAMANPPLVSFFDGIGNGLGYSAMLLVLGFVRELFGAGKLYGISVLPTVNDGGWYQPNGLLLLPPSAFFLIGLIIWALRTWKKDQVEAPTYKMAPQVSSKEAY
T2 sequence (Q9HZL1 whole entry, further chain): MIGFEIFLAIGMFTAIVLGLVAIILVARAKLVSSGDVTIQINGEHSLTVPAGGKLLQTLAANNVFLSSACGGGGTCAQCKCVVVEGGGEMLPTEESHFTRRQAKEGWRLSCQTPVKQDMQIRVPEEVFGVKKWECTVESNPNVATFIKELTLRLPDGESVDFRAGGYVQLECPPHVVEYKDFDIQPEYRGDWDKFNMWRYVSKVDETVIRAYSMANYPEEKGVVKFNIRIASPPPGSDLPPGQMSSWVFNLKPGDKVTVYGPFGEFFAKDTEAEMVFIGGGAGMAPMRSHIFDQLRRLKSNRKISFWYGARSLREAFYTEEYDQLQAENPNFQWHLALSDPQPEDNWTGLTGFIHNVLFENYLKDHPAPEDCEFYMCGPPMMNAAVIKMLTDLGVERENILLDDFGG
T2 sequence (Q9HZK7 whole entry): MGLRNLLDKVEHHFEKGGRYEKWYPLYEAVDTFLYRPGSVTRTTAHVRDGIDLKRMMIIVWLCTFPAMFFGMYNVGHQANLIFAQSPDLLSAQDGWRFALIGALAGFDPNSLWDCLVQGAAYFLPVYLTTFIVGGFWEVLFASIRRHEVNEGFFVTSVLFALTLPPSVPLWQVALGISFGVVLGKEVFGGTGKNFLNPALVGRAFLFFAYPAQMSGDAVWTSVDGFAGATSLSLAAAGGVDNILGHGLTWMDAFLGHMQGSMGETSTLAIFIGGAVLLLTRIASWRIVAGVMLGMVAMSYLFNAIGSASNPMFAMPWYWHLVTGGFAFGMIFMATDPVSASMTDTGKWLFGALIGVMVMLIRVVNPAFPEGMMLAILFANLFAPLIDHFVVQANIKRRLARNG
T2 sequence (Q9HZK6 whole entry, further chain): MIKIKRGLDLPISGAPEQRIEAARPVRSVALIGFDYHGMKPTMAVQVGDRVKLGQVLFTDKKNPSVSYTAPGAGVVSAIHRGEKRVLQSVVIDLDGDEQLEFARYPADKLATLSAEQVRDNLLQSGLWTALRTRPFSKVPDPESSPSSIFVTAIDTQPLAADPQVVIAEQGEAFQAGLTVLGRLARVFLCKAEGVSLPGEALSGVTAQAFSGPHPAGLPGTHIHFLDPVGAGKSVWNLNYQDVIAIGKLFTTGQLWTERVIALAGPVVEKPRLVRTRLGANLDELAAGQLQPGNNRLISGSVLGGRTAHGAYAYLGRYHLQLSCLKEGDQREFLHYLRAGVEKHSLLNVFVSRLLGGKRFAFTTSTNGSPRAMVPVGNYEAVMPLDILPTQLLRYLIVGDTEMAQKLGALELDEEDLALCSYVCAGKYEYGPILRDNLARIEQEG
T2 sequence (Q9HZL0 whole entry, further chain): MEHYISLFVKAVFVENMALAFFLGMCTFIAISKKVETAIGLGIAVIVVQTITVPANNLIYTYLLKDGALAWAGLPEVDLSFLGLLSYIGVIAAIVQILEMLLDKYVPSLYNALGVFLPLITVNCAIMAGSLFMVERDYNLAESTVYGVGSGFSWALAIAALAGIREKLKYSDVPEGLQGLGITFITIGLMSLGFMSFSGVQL
T2 sequence (Q9HZK8 whole entry, further chain): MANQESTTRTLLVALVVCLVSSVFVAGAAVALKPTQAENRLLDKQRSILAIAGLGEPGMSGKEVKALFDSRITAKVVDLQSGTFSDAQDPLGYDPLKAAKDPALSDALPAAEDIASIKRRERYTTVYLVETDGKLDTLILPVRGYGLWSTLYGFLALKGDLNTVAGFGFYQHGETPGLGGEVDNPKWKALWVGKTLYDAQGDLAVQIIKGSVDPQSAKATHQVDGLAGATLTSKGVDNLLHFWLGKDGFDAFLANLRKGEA

T1 sequence (Q9HZL1 whole entry): as the sequence (Q9HZL1 whole entry, further chain) above
T1 sequence (Q9HZK6 whole entry partner): as the sequence (Q9HZK6 whole entry, further chain) above
T1 sequence (Q9HZK7 whole entry partner): as the sequence (Q9HZK7 whole entry) above
T1 sequence (Q9HZK8 whole entry partner): as the sequence (Q9HZK8 whole entry, further chain) above
T1 sequence (Q9HZK9 whole entry partner): as the sequence (Q9HZK9 whole entry) above
T1 sequence (Q9HZL0 whole entry partner): as the sequence (Q9HZL0 whole entry, further chain) above

With NC(=O)C1=CN([C@@H]2O[C@H](COP(=O)(O)OP(=O)(O)OC[C@H]3O[C@@H](n4cnc5c(=O)[nH]cnc54)[C@H](O)[C@@H]3O)[C@@H](O)[C@H]2O)C=CC1 [deamino NADH] as the compound, how does the “ubiquinone reductase activity at 282 nm” value ([1]; 250 μM deamino NADH) read?
The value was “purified P. aeruginosa NQR (F) using as substrates NADH (black) or deamino NADH”.

NC(=O)C1=CN([C@@H]2O[C@H](COP(=O)(O)OP(=O)(O)OC[C@H]3O[C@@H](n4cnc5c(N)ncnc54)[C@H](O)[C@@H]3O)[C@@H](O)[C@H]2O)C=CC1 [NADH] was tested. Which “ubiquinone reductase activity at 282 nm” value ([1]; 250 μM NADH) did it give?
Its value is “purified P. aeruginosa NQR (F) using as substrates NADH (black) or deamino NADH”.

How did the Ki (NQR) turn out when CCCCCCCc1cc(O)c2ccccc2[n+]1[O-] [HQNO] was run?
Its Ki is 2000 nM.
